Experiments:
[1] = tested on: Staphylococcus aureus (gram-positive); assay: Quantitative antibacterial activity test of treated materials (OECD / ISO 22197/20743), Gram +; type: cell-based, S. aureus ATCC6538P
[2] = tested on: Escherichia coli (gram-negative); assay: Quantitative antibacterial activity test of treated materials (OECD / ISO 22197/20743), Gram −; type: cell-based
MS2 virus = assay: Virucidal testing with MS2 droplets on coated filter media 2.2 (Example 3); type: cell-based; details: 2 hours incubation
Experimental: Filter media 2.2 were coated according to the process parameters of Table 9 using the same PlasmaLine® equipment. For each coating process, 2 samples were coated with the outer waved layer exposed to the plasma source, and 2 samples were coated with the outer backing layer surface exposed.
Two precursors were used: an aqueous solution comprising 40% by weight of citric acid, and a solution of 15% by weight of chlorocresol in ethanol.
The anti-viral properties were tested by application of a fixed number of water droplets containing the MS2 virus on the surface of the samples. The droplets were applied to the surface that was exposed to the plasma source during the atmospheric pressure plasma coating process. After an incubation of 2 hours, the samples were immerged in a recuperation solution to extract the virus from the samples. The recuperation solution was placed in a petri dish wherein the E. coli bacteria grew, and the number of viral zones (zones comprising death bacteria) are counted. A lower number of viral zones indicates a larger neutralisation of the virus by the plasma coating.
The Virucide result (log value) gives the log value of the number of living viruses found in the recuperation solution.

MS2 = MS2 test after accelerated ageing (ASTM F1980-16), Example 4; type: cell-based
Excerpt: Same filter media 2.2 as in example 3 was used. The filter media was placed with the outer backing layer on a support platform and the outer wave layer exposed to the coating precursor-comprising plasma discharge (or the plasma source) during the atmospheric pressure plasma coating process.
Two different precursors were used: an aqueous solution comprising 50% by weight of citric acid (CAS 77-92-9), and an aqueous solution comprising 25% by weight n-alkyl(C12-16)-n,n-dimethyl-n-benzylammonium chloride (BTC50E; CAS 68424-85-1) (1:1 w/w dilution in water).
Filter media samples were coated with each coating by passing 3 or 6 times through the plasma discharge area. The virucidal performance was tested by the MS2 test as explained above. An accelerated ageing test was performed according to ASTM F1980-16. […] An ageing test of 3 days at 55° C. and 75% RH represents 1 month in real life conditions. The results of the virucidal performance after ageing gives an idea of the durability of the coating over time.

Phi-6 bacteriophage = assay: Phi-6 virucidal test (modified ISO 10705-1:1995); type: cell-based; details: 20 wt% citric acid precursor, Outer wave sample, 2-hour contact
[3] = pH test (change in pH value before and after coating, penetration depth); type: physicochemical; details: Outer wave sample
Experimental: The penetration depth was measured by measuring the change in pH value before and after coating on samples of the outer wave layer 51. […] Presence of citric acid was also detected in the intermediate layer 52.

[4] = exposed side Backing layer, 5 passes
[5] = exposed side Backing layer, 10 passes
[6] = exposed side waved layer, 5 passes
[7] = exposed side waved layer, 10 passes
[8] = exposed side waved layer, 20 passes
[9] = 3 passes, 0 days oven (0 months real life)
[10] = 3 passes, 3 days oven 55° C. 75% RH (1 month real life)
[11] = 3 passes, 6 days oven 55° C. 75% RH (2 months real life)
[12] = 3 passes, 9 days oven (3 months real life)
[13] = 3 passes, 19 days oven (6 months real life)
[14] = 3 passes, 27 days oven (9 months real life)
[15] = 3 passes, 36 days oven (12 months real life)
[16] = 6 passes, 0 days oven (0 months real life)
[17] = 6 passes, 3 days oven 55° C. 75% RH (1 month real life)
[18] = 6 passes, 6 days oven 55° C. 75% RH (2 months real life)
[19] = 6 passes, 9 days oven (3 months real life)
[20] = 6 passes, 19 days oven (6 months real life)
[21] = 6 passes, 27 days oven (9 months real life)
[22] = 6 passes, 36 days oven (12 months real life)
[23] = exposed side Backing layer, 20 passes

## Benzalkonium chloride [reference compound]
[1]; PPNW substrate 25 g/m^2
  % Gram + bacteria reduced: >99.994%
  Gram + log reduction: >4.2 log
[1]; Tyvek substrate
  % Gram + bacteria reduced: >99.5%
  Gram + log reduction: >3.3 log
[2]; PPNW substrate 25 g/m^2
  % Gram − bacteria reduced: 99.9996%
  Gram − log reduction: 5.4 log
[2]; Tyvek substrate
  % Gram − bacteria reduced: 98.7%
  Gram − log reduction: 1.9 log

## Cc1cc(O)ccc1Cl [Chlorocresol, reference compound]
MS2 virus; [4]
  Virus neutralized (%): 68.4%
  Viruside results (log red): 0.5 log red
MS2 virus; [5]
  Virus neutralized (%): 98.0%
  Viruside results (log red): 1.7 log red
MS2 virus; [6]
  Virus neutralized (%): 36.9%
  Viruside results (log red): 0.2 log red
MS2 virus; [7]
  Virus neutralized (%): 74.9%
  Viruside results (log red): 0.6 log red
MS2 virus; [8]
  Virus neutralized (%): 84.2%
  Viruside results (log red): 0.8 log red

## PVP-12 Poly(vinylpyrrolidone)- Iodine complex [PVP-I2, reference compound]
[1]; PPNW substrate 25 g/m^2
  % Gram + bacteria reduced: >99.994%
  Gram + log reduction: >4.2 log
[2]; PPNW substrate 25 g/m^2
  % Gram − bacteria reduced: >99.9996%
  Gram − log reduction: >5.4 log

## n-alkyl(C12-16)-n,n-dimethyl-n-benzylammonium chloride [BTC50E]
MS2; [9]
  Virus neutralized (%): 99.57%
  Viruside results (log red): 2.37 log red
MS2; [10]
  Virus neutralized (%): 99.96%
  Viruside results (log red): 3.38 log red
MS2; [11]
  Virus neutralized (%): 99.74%
  Viruside results (log red): 2.59 log red
MS2; [12]
  Virus neutralized (%): 99.35%
MS2; [13]
  Virus neutralized (%): 99.86%
MS2; [14]
  Virus neutralized (%): 99.89%
MS2; [15]
  Virus neutralized (%): 99.98%
MS2; [16]
  Virus neutralized (%): 99.83%
  Viruside results (log red): 2.78 log red
MS2; [17]
  Virus neutralized (%): 99.82%
  Viruside results (log red): 2.75 log red
MS2; [18]
  Virus neutralized (%): 99.83%
  Viruside results (log red): 2.78 log red
MS2; [19]
  Virus neutralized (%): 98.88%
MS2; [20]
  Virus neutralized (%): 99.83%
MS2; [21]
  Virus neutralized (%): 99.70%
MS2; [22]
  Virus neutralized (%): 98.59%

## CCCCCCCCCCCCCCCCCC[N+](C)(C)CCC[Si](OC)(OC)OC.[Cl-] [SiQAM, Dimethyloctadecyl[3-(trimethoxysilyl)propyl] ammonium chloride]
[1]; PPNW substrate 25 g/m^2
  % Gram + bacteria reduced: >99.994%
  Gram + log reduction: >4.2 log
[1]; Tyvek substrate
  % Gram + bacteria reduced: >99.95%
  Gram + log reduction: >3.3 log
[2]; PPNW substrate 25 g/m^2
  % Gram − bacteria reduced: >99.9996%
  Gram − log reduction: >5.4 log
[2]; Tyvek substrate
  % Gram − bacteria reduced: >98.7%
  Gram − log reduction: >1.9 log

## Citric Acid
MS2; [9]
  Virus neutralized (%): 99.86%
  Viruside results (log red): 2.86 log red
MS2; [12]
  Virus neutralized (%): 97.76%
MS2; [13]
  Virus neutralized (%): 97.38%
MS2; [14]
  Virus neutralized (%): 99.00%
MS2; [15]
  Virus neutralized (%): 97.91%
MS2; [16]
  Virus neutralized (%): 99.78%
  Viruside results (log red): 2.65 log red
MS2; [18]
  Virus neutralized (%): 98.09%
  Viruside results (log red): 1.72 log red
MS2; [19]
  Virus neutralized (%): 96.45%
MS2; [20]
  Virus neutralized (%): 95.91%
MS2; [21]
  Virus neutralized (%): 97.61%
MS2; [22]
  Virus neutralized (%): 93.97%
Phi-6 bacteriophage; 6 passes
  Avg. Phi-6 (log red): >2.2 log red
  Phi-6 neutralized (%): >99.37%
Phi-6 bacteriophage; 10 passes
  Avg. Phi-6 (log red): >2.2 log red
  Phi-6 neutralized (%): >99.37%
Phi-6 bacteriophage; 20 passes
  Avg. Phi-6 (log red): >2.2 log red
  Phi-6 neutralized (%): >99.37%
[3]; 6 passes
  pH test: 1.66
[3]; 10 passes
  pH test: 1.72
[3]; 20 passes
  pH test: 1.78
[1]; PPNW substrate 25 g/m^2
  % Gram + bacteria reduced: >99.995%
  Gram + log reduction: >4.3 log
[1]; Tyvek substrate
  % Gram + bacteria reduced: >99.98%
  Gram + log reduction: >3.8 log
[2]; PPNW substrate 25 g/m^2
  % Gram − bacteria reduced: >99.999%
  Gram − log reduction: >5.0 log
[2]; Tyvek substrate
  % Gram − bacteria reduced: 97.5%
  Gram − log reduction: 1.6 log
MS2 virus; [4]
  Virus neutralized (%): 93.7%
  Viruside results (log red): 1.2 log red
MS2 virus; [5]
  Virus neutralized (%): 96.0%
  Viruside results (log red): 1.4 log red
MS2 virus; [23]
  Virus neutralized (%): 99.8%
  Viruside results (log red): 2.7 log red
MS2 virus; [6]
  Virus neutralized (%): 80.0%
  Viruside results (log red): 0.7 log red
MS2 virus; [7]
  Virus neutralized (%): 93.7%
  Viruside results (log red): 1.2 log red
MS2 virus; [8]
  Virus neutralized (%): 98.7%
  Viruside results (log red): 1.9 log red

## C=C(C)C(=O)OCCN(C)C [DIMAEMA, 2-(Dimethylamino) ethyl methacrylate]
[1]; PPNW substrate 25 g/m^2
  % Gram + bacteria reduced: >99.994%
  Gram + log reduction: >4.2 log
[1]; Tyvek substrate
  % Gram + bacteria reduced: >99.95%
  Gram + log reduction: >3.3 log
[2]; PPNW substrate 25 g/m^2
  % Gram − bacteria reduced: >99.9996%
  Gram − log reduction: >5.4 log
[2]; Tyvek substrate
  % Gram − bacteria reduced: 20.6%
  Gram − log reduction: 0.1 log

Reference: US20240269337A1, “METHOD AND SYSTEM FOR COATING FILTER MEDIA” (MOLECULAR PLASMA GROUP SA, priority 2021, published 2024)
